Results as given in PMC7515950, “Physiologically based pharmacokinetic modeling to assess metabolic drug–drug interaction risks and inform the drug label for fedratinib” (Cancer Chemotherapy and Pharmacology, 2020).
pEC50, pIC50, pKi: −log10 of the molar value. Several values for one entry are separate records, joined by “and”; a condition that tells them apart may be missing. Equal values may be shown once.

Tests used:
[1] = Caco-2/TC7 permeability (Study AIV0208); type: in vitro ADME, human; details: human, Caco-2
From the text: (§1) By default, the QGut is set to be the mean value (i.e., 6.5 L/h) in the PBPK model of fedratinib.

Caco-2/TC7 = Caco-2/TC7 permeability (Study AIV0208); type: in vitro ADME, human; details: Apical pH:Basolateral pH 7.4:7.4; Simcyp input
From the text: as §1

CYP2D6 = biological target: T1, CYP2D6 (Homo sapiens, UniProt P10635); assay: CYP inhibition in human liver microsomes (MIH0887), CYP2D6; type: in vitro ADME; details: HLM, apparent Ki, reversible inhibition
T1 construct: from tissue; host or cells: human liver microsomes
T1 sequence (P10635 whole entry): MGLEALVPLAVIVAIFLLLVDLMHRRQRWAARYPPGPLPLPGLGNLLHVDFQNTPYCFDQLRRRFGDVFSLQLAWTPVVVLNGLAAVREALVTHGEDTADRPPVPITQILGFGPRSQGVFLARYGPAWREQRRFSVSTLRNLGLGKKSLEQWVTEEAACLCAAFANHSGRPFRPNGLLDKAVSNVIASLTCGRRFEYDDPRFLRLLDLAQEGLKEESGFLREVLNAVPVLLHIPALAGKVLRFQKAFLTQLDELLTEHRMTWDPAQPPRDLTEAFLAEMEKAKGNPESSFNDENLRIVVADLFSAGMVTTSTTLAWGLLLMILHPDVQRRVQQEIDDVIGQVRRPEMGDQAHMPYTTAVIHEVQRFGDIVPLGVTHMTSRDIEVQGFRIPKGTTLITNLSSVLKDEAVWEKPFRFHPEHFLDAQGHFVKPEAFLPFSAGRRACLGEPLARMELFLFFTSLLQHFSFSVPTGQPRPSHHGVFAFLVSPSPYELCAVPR
Protocol: The CYP enzyme reverse inhibition and mechanism-based inhibition (MBI) parameters were estimated in the human liver microsome (HLM) incubation in vitro studies. The reported reversible inhibition parameter (i.e., apparent Ki) values for CYP2C8, CYP2C9, and CYP2D6, along with the MBI parameters (i.e., KI or Kapp and kinact) for CYP2C19 and CYP3A4, were supplied to the PBPK DDI model (see Table 2).

CYP3A4 = assay: CYP3A induction in primary human hepatocytes (IHH0014); type: in vitro ADME
From the text: The induction effect of fedratinib on CYP3A gene expression was identified using human hepatocytes in primary culture. The reported kinetic data, i.e., concentration-dependent fold induction of CYP3A mRNA levels, were fitted to estimate the Indmax and IndC50 values for fedratinib with calibration against the induction effect observed for the positive control compound rifampin [9].

[2] = system: cryopreserved human hepatocytes; assay: Contribution of metabolic enzymes in cryopreserved human hepatocytes (MIH0888); type: in vitro ADME; details: 1 µM fedratinib
[3] = PBPK parameter estimation in Simcyp (retrograde modeling, QGut, Peff, F, Fg, CLAdd); design: species or system human; details: for CLint,CYP2C19 / CLint,CYP2D6 / CLint,CYP3A4: retrograde modeling, healthy subjects
From the text: Using the retrograde modeling tool provided within Simcyp®, the intrinsic enzyme clearance (CLint) values were optimized by minimizing the differences between the model-predicted and clinically observed dose-normalized AUCinf (see Supplemental Material SM2—Metabolism Parameters), with the fractions of metabolism of CYP3A4 (fmCYP3A4) and additional hepatic enzymes (fmHLM,add) refined by the parameter sensitivity analysis on accumulation ratio for repeated-dose clinical studies (see Supplemental Material SM8). The renal clearance (CLR) and additional systemic clearance (CLadd) were provided as input parameters estimated from the clinical data (see Supplemental Material SM2—Excretion Parameters). The PBPK distribution parameters (including Vss, Vsac, and Q) were directly derived from the compartmental modeling of plasma PK data obtained from healthy subjects administered 500 mg fedratinib single doses, and then provided as input parameters without further modifications (see Supplemental Material SM2—Distribution Parameters).
as §1
As CYP3A4 is the dominant form of CYP3A in the liver, all metabolic contribution from CYP3A was assigned to CYP3A4 in this PBPK model. The default “Healthy Volunteers” population was used for the retrograde modeling. […] The Fg value required for retrograde modeling was initially set as default 1 and then adjusted to ~0.8 based on model prediction. […] The clearance values derived above for fedratinib in healthy subjects were assumed to be the same for cancer patients including myelofibrosis (MF) patients and patients with refractory solid tumors.
The biliary excretion of unchanged drug accounts for 2.3% of the total intravenous dose in bile-duct cannulated (BDC) rats.

P-gp = P-gp (Homo sapiens, UniProt P08183); assay: P-gp interaction in Caco-2/TC7 (Study AIV0208); type: in vitro ADME; design: endogenous in cells; host or cells: Caco-2/TC7
Sequence of P-gp (P08183 whole entry): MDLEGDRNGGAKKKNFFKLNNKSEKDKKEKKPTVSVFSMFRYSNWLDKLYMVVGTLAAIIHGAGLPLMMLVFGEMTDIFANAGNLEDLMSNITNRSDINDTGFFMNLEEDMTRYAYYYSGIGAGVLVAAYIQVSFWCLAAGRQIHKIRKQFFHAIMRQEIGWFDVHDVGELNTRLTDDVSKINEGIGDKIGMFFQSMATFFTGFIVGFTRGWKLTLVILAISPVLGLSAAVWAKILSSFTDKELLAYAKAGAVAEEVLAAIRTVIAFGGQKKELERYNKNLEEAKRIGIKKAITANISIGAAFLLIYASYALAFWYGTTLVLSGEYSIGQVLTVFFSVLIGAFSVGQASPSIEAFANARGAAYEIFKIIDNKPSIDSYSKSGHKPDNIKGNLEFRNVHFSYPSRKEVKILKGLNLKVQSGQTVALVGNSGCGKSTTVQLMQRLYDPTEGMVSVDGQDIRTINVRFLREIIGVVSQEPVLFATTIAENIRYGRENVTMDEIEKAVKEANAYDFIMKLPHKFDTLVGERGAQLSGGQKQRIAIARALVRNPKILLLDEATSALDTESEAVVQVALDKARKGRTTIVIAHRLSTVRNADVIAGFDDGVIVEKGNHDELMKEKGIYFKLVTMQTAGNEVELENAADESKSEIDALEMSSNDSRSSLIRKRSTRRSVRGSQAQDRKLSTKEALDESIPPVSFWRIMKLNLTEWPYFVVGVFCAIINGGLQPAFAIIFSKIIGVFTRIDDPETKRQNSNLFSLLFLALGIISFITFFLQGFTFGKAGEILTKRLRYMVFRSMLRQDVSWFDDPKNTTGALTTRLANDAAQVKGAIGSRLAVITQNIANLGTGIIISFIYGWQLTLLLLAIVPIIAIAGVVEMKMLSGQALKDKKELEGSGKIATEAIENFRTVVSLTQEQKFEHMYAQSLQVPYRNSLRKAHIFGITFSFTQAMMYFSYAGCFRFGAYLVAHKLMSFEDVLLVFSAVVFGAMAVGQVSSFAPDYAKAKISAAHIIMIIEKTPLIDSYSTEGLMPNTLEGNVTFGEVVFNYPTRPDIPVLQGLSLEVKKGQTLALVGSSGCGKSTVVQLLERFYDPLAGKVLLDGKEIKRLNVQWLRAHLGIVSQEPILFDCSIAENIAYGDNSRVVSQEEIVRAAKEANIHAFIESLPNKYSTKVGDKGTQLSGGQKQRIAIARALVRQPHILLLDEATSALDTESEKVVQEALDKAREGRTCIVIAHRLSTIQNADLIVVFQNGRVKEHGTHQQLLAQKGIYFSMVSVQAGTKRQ
From the text: (§2) The reported IC50 values were converted to Ki values using the Cheng-Prusoff equation [10]:
(§3) The transporter inhibition parameters (Ki) for fedratinib were derived from the experimentally determined IC50 values using the Cheng-Prusoff equation, i.e., Ki = IC50/(1+[S]/Km) with the substrate concentrations ([S]) reported in the experimental studies and the substrate Km values collected from literature, as summarized in Table 13.

OATP1B1 = biological target: T2, OATP1B1 (Homo sapiens, UniProt Q9Y6L6); assay: OATP1B1 inhibition, HEK-hOATP1B1 cells (TRE0075); type: in vitro ADME; design: expressed in transfected cells; host or cells: HEK^TR-hOATP1B1
T2 sequence (Q9Y6L6 1-691): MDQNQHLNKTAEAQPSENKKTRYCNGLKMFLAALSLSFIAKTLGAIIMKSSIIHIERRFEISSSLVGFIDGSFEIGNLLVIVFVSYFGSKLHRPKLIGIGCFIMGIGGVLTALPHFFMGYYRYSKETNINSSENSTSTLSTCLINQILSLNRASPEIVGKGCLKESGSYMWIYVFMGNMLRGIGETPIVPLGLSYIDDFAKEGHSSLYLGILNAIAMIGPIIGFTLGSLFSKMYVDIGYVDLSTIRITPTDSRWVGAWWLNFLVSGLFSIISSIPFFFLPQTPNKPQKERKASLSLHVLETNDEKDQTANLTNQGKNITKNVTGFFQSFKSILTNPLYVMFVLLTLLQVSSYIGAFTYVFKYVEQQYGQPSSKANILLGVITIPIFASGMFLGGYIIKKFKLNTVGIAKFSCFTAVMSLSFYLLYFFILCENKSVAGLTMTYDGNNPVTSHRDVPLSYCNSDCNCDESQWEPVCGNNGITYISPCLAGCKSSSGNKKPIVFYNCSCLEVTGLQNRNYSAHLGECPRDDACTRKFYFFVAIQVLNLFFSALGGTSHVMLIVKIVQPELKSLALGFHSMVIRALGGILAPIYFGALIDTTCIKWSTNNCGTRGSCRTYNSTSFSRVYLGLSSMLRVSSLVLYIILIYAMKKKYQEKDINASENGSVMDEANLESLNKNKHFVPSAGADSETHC
From the text: as §2, §3

Compound: Cc1cnc(Nc2ccc(OCCN3CCCC3)cc2)nc1Nc1cccc(S(=O)(=O)NC(C)(C)C)c1 [Fedratinib]
- Papp at 40 μM ([1]; Apical pH:Basolateral pH 6.5:7.4, 40 μM fedratinib): 0.21 ×10⁻⁶ cm/s
- Papp at 100 μM ([1]; Apical pH:Basolateral pH 7.4:7.4, 100 μM fedratinib): 17.8 ×10⁻⁶ cm/s
- PCaco-2 (Caco-2/TC7): 17.800 10E-06 cm/s
- pKi (CYP2D6): 5.00
- CYP3A4 Ind max (CYP3A4; Simcyp input): 78.000
- pEC50 (CYP3A4; human, human hepatocytes in primary culture, CYP3A mRNA, fitted, calibrated against rifampin, read-out: CYP3A4 IndC50): 5.28
- CYP3A Indmax (CYP3A4; maximal fold induction over vehicle, CYP3A mRNA, calibrated against rifampin): 78.0
- hepatic metabolic clearance percentage, CYP2C19 [2]: 17% and ~ 17%
- hepatic metabolic clearance percentage, CYP2D6 [2]: 2% and ~ 2%
- hepatic metabolic clearance percentage, CYP3A [2]: 63% and ~ 63%
- metabolic contribution to hepatic clearance, other liver enzymes [2]: ~ 18%
- clearance ([3]; human, oral, read-out: CLAdd (additional systemic clearance) (converted)): ~11.2 mL/min
- biliary excretion percentage assumed in humans ([3]; oral dose, assumed from rat data): ~ 2%
- CLint,CYP2C19 [3]: 1.25 mL/min/pmol of isoform
- CLint,CYP2D6 [3]: 0.258 mL/min/pmol of isoform
- CLint,CYP3A4 [3]: 0.610 mL/min/pmol of isoform
- CLint,CYP2C19 ([3]; listed as fedratinib): 1.25 μL/min/pmol of isoform and 1.253 μL/min/pmol of isoform
- CLint,CYP2D6 ([3]; listed as fedratinib): 0.258 μL/min/pmol of isoform
- CLint,CYP3A4 ([3]; listed as fedratinib): 0.610 μL/min/pmol of isoform
- CLpo used for retrograde calculation ([3]; updated so that predicted dose-normalized AUC agrees with observation): 48 L/h
- P-gp substrate in vitro (P-gp): substrate
- pKi (P-gp; from IC50 by Cheng-Prusoff, probe digoxin): 5.00
- pIC50 (P-gp; probe digoxin 5 μM): 5.00
- pKi (OATP1B1; from IC50 by Cheng-Prusoff, probe estradiol-17β-glucuronide): 4.84
- pIC50 (OATP1B1; probe estradiol-17β-glucuronide 1 μM): 4.79
